Measurements taken from patent US20070161645A1, “Thiazole inhibitors targeting resistant kinase mutations” (TargeGen, Inc., priority 2005, published 2007).
Where a name gives a salt, the structure may show the parent alone. Read-outs that look alike come from different tables or passages of the source.

Assays:
Abl kinase = target: T1, Abl kinase (Homo sapiens, UniProt P00519); assay: Abl Kinase Assay (KinaseGlo luminescent detection of residual ATP); assay type: biochemical
T1 construct: purchased Invitrogen

Abl (T315I) = target: T2, Abl (T315I) (Homo sapiens, UniProt P00519, T315I); assay: Abl (T315I) Kinase Assay (KinaseGlo luminescent detection of residual ATP); assay type: biochemical
T2 construct: purchased Upstate
Description: The assay was performed similarly to the Abl kinase assay. Abl (T3151) (Upstate, 17 ng/well); Abltide substrate (100 μM) and ATP (5 nM) comprised the reaction mixture. Compound was similarly diluted, and the reaction plate was incubated for 60 minutes at 37° C. IC50's were calculated as for the Abl kinase assay using GraphPad Prism4.

[1] = Abl kinase 20 ng/well, Abltide 100 μM, ATP 500 nM, 60 minutes at 37° C., read-out: Abl IC50
[2] = Abl (T315I) 17 ng/well, Abltide 100 μM, ATP 5 nM, 60 minutes at 37° C., read-out: Abl (T315I) IC50

SMILES | IC50 (Abl kinase) | IC50 (Abl (T315I)) | IC50 (Abl kinase; [1]) | IC50 (Abl (T315I); [2])
O=S(=O)(c1ccc(Nc2ncc(/C=C/c3ccc(O)cc3)s2)cc1)C1CCNCC1 | 0.215 µM | 0.262 µM | – | –
Cc1nc(Nc2ncc(/C=C/c3ccc(Cl)c4[nH]ccc34)s2)cc(N2CCNCC2)n1 [4-{5-[2-(3-Hydroxy-phenyl)-vinyl]-pyrimidine-2-ylamino}-N-piperdin-4-yl-benzenesulfonamide] | – | – | 0.07 µM | 0.05 µM
CN(CCN1CCCC1)S(=O)(=O)c1cccc(Nc2ncc(/C=C/c3ccc(O)cc3)s2)c1 [Compound II, 3-{5-[2-(4-Hydroxy-phenyl)-vinyl]-thiazol-2-ylaminol}-N-methyl-N-(2-pyrrolidin-1-yl-ethyl)-benzenesulfonamide, Hydrochloride] | 0.393 µM | 0.827 µM | – | –
Cc1nc(Nc2ncc(/C=C/c3ccc(O)cc3)s2)cc(N2CCN(CCO)CC2)n1 [Compound III, 4-[2-(2-{6-[4-(2-Hydroxy-ethyl)-piperazin-1-yl]-2-methyl-pyrimidin-4-yl-amino}-thiazol-5-yl)-vinyl]-phenol] | – | – | 0.026 µM | 0.066 µM
O=S(=O)(NCCN1CCCC1)c1ccc(Nc2ncc(C=Cc3cc(O)ccc3Cl)s2)cc1 [Compound IV, 4-{5-[2-(2-Chloro-5-hydroxy-phenyl)-vinyl]-thiazol-2-ylamino}-N-(2-pyrrolidin-1-yl-ethyl)-benzenesulfonamide] | – | – | 0.89 µM | –
Oc1cccc(/C=C/c2cnc(Nc3ccc(N4CCNCC4)cc3)s2)c1 [Compound IX, 3-((E)-2-(2-(4-(Piperazin-1-yl)phenylamino)thiazol-5-yl)vinyl)phenol] | 0.015 µM | 0.154 µM | – | –
OCCN1CCN(c2cccc(Nc3ncc(/C=C/c4ccc5[nH]ccc5c4)s3)c2)CC1 [Compound V, 2-(4-(3-(5-((E)-2-(1H-indol-5-yl)vinyl)thiazol-2-ylamino)phenyl)piperazin-1-yl)ethanol] | 0.174 µM | 1.09 µM | – | –
O=S(=O)(c1cccc(Nc2ncc(/C=C/c3cccc(O)c3)s2)c1)N1CCNCC1 [Compound VI, 3-(-{2-[3-(Piperazine-1-sulfonyl)-phenylamino]-thiazol-5yl}-vinyl)-phenol] | 0.129 µM | 2.65 µM | – | –
Cc1nc(Nc2ncc(/C=C\c3cccc(O)c3)s2)cc(N2CCC(O)CC2)n1 [Compound VII, cis-1-(6-{5-[2-(3-Hydroxy-phenyl)-vinyl]-thiazol-2-ylamino}-2-methyl-pyrimidin-4-yl)-piperidin-4-ol] | – | – | 0.029 µM | 0.269 µM
Cc1nc(Nc2ncc(/C=C/c3cccc(O)c3)s2)cc(N2CCC(O)CC2)n1 [Compound VIII, trans-1-(6-{5-[2-(3-Hydroxy-phenyl)-vinyl]-thiazol-2-ylamino}-2-methyl-pyrimidin-4-yl)-piperidin-4-ol] | – | – | 0.024 µM | 0.208 µM
Oc1cccc(/C=C/c2cnc(Nc3cccc(N4CCNCC4)c3)s2)c1 [Compound X, 3-((E)-2-(2-(3-(Piperazin-1-yl)phenylamino)thiazol-5-yl)vinyl)phenol] | 0.014 µM | 0.381 µM | – | –

The next lines start with the values.

IC50 (Abl kinase) | IC50 (Abl (T315I)) | IC50 (Abl kinase; [1]) | IC50 (Abl (T315I); [2]) | SMILES
– | – | 0.137 µM | 0.437 µM | O=S(=O)(c1ccc(Nc2ncc(/C=C/c3cccc(O)c3)s2)cc1)N1CCNCC1 [Compound XI, 3-(-{2-[4-(Piperazine-1-sulfonyl)-phenylamino]-thiazol-5yl}-vinyl)-phenol]
– | – | 0.024 µM | 0.051 µM | Oc1ccc(/C=C/c2cnc(Nc3cccc(N4CCNCC4)c3)s2)cc1 [Compound XIV, 4-{2-[2-(3-Piperazin-1-yl-phenylamino)-thiazol-5-yl]-vinyl}-phenol]
0.016 µM | 0.111 µM | – | – | Cc1nc(Nc2ncc(/C=C/c3ccc4nc(N)sc4c3)s2)cc(N2CCNCC2)n1 [Compound XIX, 6-[(E)-2-{2-[(2-Methyl-6-piperazin-1-ylpyrimidin-4-yl)amino]-1,3-thiazol-5-yl}vinyl]-1,3-benzothiazol-2-amine]
– | – | 0.054 µM | 0.343 µM | Cc1nc(Nc2ncc(/C=C/c3ccc4[nH]ccc4c3)s2)cc(N2CCNCC2)n1 [Compound XV, {5-[2-(1H-Indol-5-yl)-vinyl]-thiazol-2-yl}-(2-methyl-6-piperazin-1-yl-pyrimidin-4-yl)-amine]
– | – | 0.02 µM | 0.328 µM | Cc1nc(Nc2ncc(/C=C/c3cccc4[nH]ncc34)s2)cc(N2CCNCC2)n1 [Compound XVI, {5-[2-(1H-Indazol-4-yl)-vinyl]-thiazol-2-yl}-(2-methyl-6-piperazin-1-yl-pyrimidin-4-yl)-amine]
– | – | 0.0044 µM | 0.035 µM | Oc1cccc(/C=C/c2cnc(Nc3cc(N4CCNCC4)ncn3)s2)c1 [Compound XVII, 3-{2-[2-(6-Piperazin-1-yl-pyrimidin-4-ylamino)-thiazol-5-yl]-vinyl}-phenol]
– | – | 0.0027 µM | 0.031 µM | Cc1nc(Nc2ncc(/C=C/c3cccc(O)c3)s2)cc(N2CCCNCC2)n1 [Compound XVIII, 3-{2-[2-(6-[1,4]Diazepan-1-yl-2-methyl-pyrimidin-4-ylamino)-thiazol-5-yl]-vinyl}-phenol]
0.0015 µM | 0.018 µM | – | – | Cc1nc(Nc2ncc(/C=C/c3cccc(O)c3)s2)cc(N2CCNCC2)n1 [Compound XX, (E)-3-(2-(2-(2-Methyl-6-(piperazin-1-yl)pyrimidin-4-ylamino)thiazol-5-yl)vinyl)phenol hydrochloride]
0.224 µM | 0.605 µM | – | – | COc1cccc(/C=C/c2cnc(Nc3cc(N4CCNCC4)nc(C)n3)s2)c1 [Compound XXI, (E)-5-(3-Methoxystyryl)-N-(2-methyl-6-(piperazin-1-yl)pyrimidin-4-yl)thiazol-2-amine hydrochloride]
0.161 µM | 0.272 µM | – | – | Oc1ccc(/C=C/c2cnc(Nc3cccc(OCCN4CCCC4)c3)s2)cc1 [Compound XXII, 4-(2-{2-[3-(2-Pyrrolidin-1-yl-ethoxy)-phenylamino]-thiazol-5-yl}-vinyl)-phenol]
– | – | 0.307 µM | 7.14 µM | O=C(Nc1ccc(/C=C/c2cnc(Nc3cccc(N4CCNCC4)c3)s2)cc1)c1cccc(C(F)(F)F)c1 [Compound XXIII, N-(4-{2-[2-(3-Piperazin-1-yl-phenylamino)-thiazol-5-yl]-vinyl}-phenyl)-3-trifluoromethyl-benzamide]
– | – | 0.016 µM | 0.35 µM | Cc1nc(Nc2ncc(/C=C/c3ccc4[nH]ncc4c3)s2)cc(N2CCNCC2)n1 [Compound XXIV, {5-[2-(1H-Indazol-5-yl)-vinyl]-thiazol-2-yl}-(2-methyl-6-piperazin-1-yl-pyrimidin-4-yl)-amine]
